In PubChem BioAssay (NCI):
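48-hour exposure; five concentrations; linearly interpolated endpoints. At the TGI there is no net growth.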

Tests used:
Assay in all cases: growth of human tumour cells (NCI), 48 h
TK-10 renal = tested on: TK-10 renal
MDA-MB-435 = tested on: MDA-MB-435
MDA-N = tested on: MDA-N
ACHN renal = tested on: ACHN renal
SW-620 colon = tested on: SW-620 colon
SK-MEL-2 melanoma = tested on: SK-MEL-2 melanoma
SF-539 CNS = tested on: SF-539 CNS
UACC-257 melanoma = tested on: UACC-257 melanoma
MDA-MB-231 breast = tested on: MDA-MB-231 breast
NCI-H460 lung = tested on: NCI-H460 lung
CCRF-CEM leukemia = tested on: CCRF-CEM leukemia
KM12 colon = tested on: KM12 colon
HOP-62 NSCLC = tested on: HOP-62 NSCLC
A498 renal = tested on: A498 renal
LOX IMVI melanoma = tested on: LOX IMVI melanoma
SNB-19 CNS = tested on: SNB-19 CNS
DU-145 prostate = tested on: DU-145 prostate
UACC-62 melanoma = tested on: UACC-62 melanoma
SK-MEL-5 melanoma = tested on: SK-MEL-5 melanoma
PC-3 prostate = tested on: PC-3 prostate
HT29 colon = tested on: HT29 colon
A549 NSCLC = tested on: A549 NSCLC
SK-MEL-28 melanoma = tested on: SK-MEL-28 melanoma
M14 melanoma = tested on: M14 melanoma
MOLT-4 leukemia = tested on: MOLT-4 leukemia
BT-549 breast = tested on: BT-549 breast
HCT-116 colon = tested on: HCT-116 colon
COLO 205 colon = tested on: COLO 205 colon
SF-268 CNS = tested on: SF-268 CNS
SNB-75 CNS = tested on: SNB-75 CNS
SF-295 CNS = tested on: SF-295 CNS
EKVX NSCLC = tested on: EKVX NSCLC
HS 578T breast = tested on: HS 578T breast
786-0 renal = tested on: 786-0 renal
OVCAR-3 ovarian = tested on: OVCAR-3 ovarian
T-47D breast = tested on: T-47D breast
SN12C renal = tested on: SN12C renal
HOP-92 NSCLC = tested on: HOP-92 NSCLC
OVCAR-5 ovarian = tested on: OVCAR-5 ovarian
OVCAR-4 ovarian = tested on: OVCAR-4 ovarian
U251 CNS = tested on: U251 CNS
NCI-H522 lung = tested on: NCI-H522 lung
NCI-H23 lung = tested on: NCI-H23 lung
NCI-H226 lung = tested on: NCI-H226 lung
SK-OV-3 ovarian = tested on: SK-OV-3 ovarian
UO-31 renal = tested on: UO-31 renal
CAKI-1 renal = tested on: CAKI-1 renal
HCT-15 colon = tested on: HCT-15 colon
HL-60(TB) leukemia = tested on: HL-60(TB) leukemia
MCF7 breast = tested on: MCF7 breast
OVCAR-8 ovarian = tested on: OVCAR-8 ovarian

How did the TGI (TK-10 renal) turn out when CCCCC1C=Cn2c(=O)oc3c(OC(C)C)c(OC(C)C)c(O)c1c32 (stereo unspecified) was run?
The TGI was 31.4 µM.

And the TGI (MDA-MB-435)?
The TGI was 26.8 µM.

And the TGI (MDA-N)?
The TGI was 55.5 µM.

What about the TGI (ACHN renal) of the same compound?
Its TGI is > 100 µM.

What about the TGI (SW-620 colon) of the same compound?
The TGI was 27.2 µM.

What about the TGI (SK-MEL-2 melanoma) of the same compound?
Its TGI is 37.7 µM.

And the TGI (SF-539 CNS)?
Its TGI is 38.7 µM.

What about the TGI (UACC-257 melanoma) of the same compound?
Its TGI is 41.7 µM.

What about the TGI (MDA-MB-231 breast) of the same compound?
The TGI was 33.1 µM.

And the TGI (NCI-H460 lung)?
Its TGI is 29.6 µM.

And the TGI (CCRF-CEM leukemia)?
The TGI was 25.6 µM.

What about the TGI (KM12 colon) of the same compound?
The TGI was 27.4 µM.

What about the TGI (HOP-62 NSCLC) of the same compound?
Its TGI is 38 µM.

And the TGI (A498 renal)?
Its TGI is 32.3 µM.

What about the TGI (LOX IMVI melanoma) of the same compound?
The TGI was 27.4 µM.

And the TGI (SNB-19 CNS)?
The TGI was 68.2 µM.

What about the TGI (DU-145 prostate) of the same compound?
Its TGI is 34.2 µM.

What about the TGI (UACC-62 melanoma) of the same compound?
Its TGI is 28.8 µM.

And the TGI (SK-MEL-5 melanoma)?
The TGI was 27.8 µM.

What about the TGI (PC-3 prostate) of the same compound?
Its TGI is > 100 µM.

And the TGI (HT29 colon)?
The TGI was 29.2 µM.

What about the TGI (A549 NSCLC) of the same compound?
Its TGI is 46.6 µM.

And the TGI (SK-MEL-28 melanoma)?
Its TGI is 39.3 µM.

And the TGI (M14 melanoma)?
Its TGI is 46.3 µM.

What about the TGI (MOLT-4 leukemia) of the same compound?
Its TGI is 27.8 µM.

What about the TGI (BT-549 breast) of the same compound?
The TGI was 34.7 µM.

What about the TGI (HCT-116 colon) of the same compound?
The TGI was 34.9 µM.

What about the TGI (COLO 205 colon) of the same compound?
Its TGI is 30.3 µM.

What about the TGI (SF-268 CNS) of the same compound?
The TGI was 44.9 µM.

What about the TGI (SNB-75 CNS) of the same compound?
Its TGI is 47.5 µM.

What about the TGI (SF-295 CNS) of the same compound?
Its TGI is 40 µM.

And the TGI (EKVX NSCLC)?
Its TGI is 83.1 µM.

What about the TGI (HS 578T breast) of the same compound?
Its TGI is 67 µM.

And the TGI (786-0 renal)?
Its TGI is 48.6 µM.

What about the TGI (OVCAR-3 ovarian) of the same compound?
The TGI was 30.6 µM.

What about the TGI (T-47D breast) of the same compound?
The TGI was 27 µM.

And the TGI (SN12C renal)?
Its TGI is 49.1 µM.

What about the TGI (HOP-92 NSCLC) of the same compound?
The TGI was 47.2 µM.

What about the TGI (OVCAR-5 ovarian) of the same compound?
The TGI was 34.2 µM.

What about the TGI (OVCAR-4 ovarian) of the same compound?
The TGI was 42.8 µM.

And the TGI (U251 CNS)?
The TGI was 29.4 µM.

And the TGI (NCI-H522 lung)?
The TGI was 24.7 µM.

What about the TGI (NCI-H23 lung) of the same compound?
Its TGI is 32.6 µM.

And the TGI (NCI-H226 lung)?
Its TGI is 27.5 µM.

And the TGI (SK-OV-3 ovarian)?
The TGI was 84.3 µM.

And the TGI (UO-31 renal)?
The TGI was 27.8 µM.

What about the TGI (CAKI-1 renal) of the same compound?
Its TGI is 37.5 µM.

What about the TGI (HCT-15 colon) of the same compound?
Its TGI is 31.4 µM.

What about the TGI (HL-60(TB) leukemia) of the same compound?
The TGI was 22.8 µM.

And the TGI (MCF7 breast)?
The TGI was 29.2 µM.

And the TGI (OVCAR-8 ovarian)?
The TGI was 29.5 µM.
